Laboratory results: patent US9174982B2, “Apoptosis-inducing agents for the treatment of cancer and immune and autoimmune diseases” (AbbVie Inc., priority 2009, dated 2015)

Assays:
GST-Bcl-2 = GST-Bcl-2 (Homo sapiens (Human), UniProt P10415); experiment: Time Resolved-Fluorescence Resonance Energy Transfer (TR-FRET) Bcl-2 binding assay; conditions: GST-Bcl-2 1 nM, F-Bak peptide probe 100 nM, Tb-anti-GST 1 nM; 3 hours at room temperature; < means below limit of detection
Experimental: Determination of the utility of compounds having Formula (I) as binders to and inhibitors of anti-apoptotic Bcl-2 proteins was performed using the Time Resolved-Fluorescence Resonance Energy Transfer (TR-FRET) Assay.
Representative compounds were serially diluted in dimethyl sulfoxide (DMSO) starting at 50 μM (2× starting concentration; 10% DMSO) and 10 μL were transferred into a 384-well plate. The samples are then mixed on a shaker for 1 minute and incubated for an additional 3 hours at room temperature. For each assay, the probe/antibody and protein/probe/antibody were included on each assay plate as negative and positive controls, respectively.
The samples were then mixed on a shaker for 1 minute and incubated for an additional 3 hours at room temperature. For each assay, the probe/antibody and protein/probe/antibody were included on each assay plate as negative and positive controls, respectively.

RS4;11 cells [1] = experiment: RS4;11 cell viability assay; type: cell-based; conditions: 10% human serum, 48 hours, CellTiter Glo
Experimental: Cell cytotoxicity EC50 values were assessed using CellTiter Glo (Promega) according to the manufacturer's recommendations. The EC50 values were determined as a percentage of viable cells following treatment compared to the untreated control cells.

[2] = stability of coupling product during workup and chromatography, monitored by HPLC/MS; type: physicochemical; conditions: peak disappeared during workup and chromatography
Experimental: Specifically, this was discovered by the inventors in the following compound preparation. The intermediate structure F, that directly precedes the final product of the unstable compound, was prepared according to the route below. All intermediates A-F were stable and isolable using techniques known to those skilled in the art.
Intermediate F, shown in the scheme above, was reacted with intermediate G using standard coupling conditions that are known to those skilled in the art. The reaction mixture was analyzed via HPLC/MS to monitor the formation of a peak corresponding to the compound H. While this peak formed within hours of initiating the reaction below, the peak progressively disappeared during workup and chromatography, until it no longer was present. The lack of stability of the putative compound originates from the position of the nitrogen within the fused ring-system described above. This position, which is adjacent to the oxygen-bearing carbon in the 5-substituted-1H-pyrrolo[2,3-c]pyridine ring system shown below and described above, makes the compound H unstable.

RS4;11 cells [3] = conditions: Blood, 2008, Vol. 111, 2300-2309; cited from earlier work

GST-Bcl-2, sequence (P10415 whole entry): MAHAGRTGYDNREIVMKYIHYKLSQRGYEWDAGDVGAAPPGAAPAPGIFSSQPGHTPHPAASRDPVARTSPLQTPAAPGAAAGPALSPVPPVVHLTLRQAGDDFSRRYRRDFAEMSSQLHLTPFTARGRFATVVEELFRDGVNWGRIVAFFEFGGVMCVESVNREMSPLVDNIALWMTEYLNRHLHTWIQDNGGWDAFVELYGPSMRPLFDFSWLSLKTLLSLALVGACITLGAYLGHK

| Molecule | Ki (GST-Bcl-2) [nM] | EC50 (RS4;11 cells [1]) [nM] | stability [2] | sensitivity of RS4; 11 cells to the inhibitor (RS4;11 cells [3]) |
| --- | --- | --- | --- | --- |
| 4-(4-{[2-(4-chlorophenyl)-4,4-dimethylcyclohex-1-en-1-yl]methyl}piperazin-1-yl)-N-{[4-({[(Z)-4-hydroxy-1-adamantyl]methyl}amino)-3-nitrophenyl]sulfonyl}-2-(1H-pyrrolo[2,3-b]pyridin-5-yloxy)benzamide [Example 200] | < 0.01 | 11 | – | – |
| C[C@]1(O)CC[C@@H](COc2ncc(S(=O)(=O)NC(=O)c3ccc(N4CCN(CC5=C(c6ccc(Cl)cc6)CC6(CC5)CC6)CC4)cc3Oc3cnc4[nH]ccc4c3)cc2Cl)CC1 [Example 341, N-({5-chloro-6-[(trans-4-hydroxy-4-methylcyclohexyl)methoxy]pyridin-3-yl}sulfonyl)-4-(4-{[5-(4-chlorophenyl)spiro[2.5]oct-5-en-6-yl]methyl}piperazin-1-yl)-2-(1H-pyrrolo[2,3-b]pyridin-5-yloxy)benzamide] | < 0.01 | 31.7 | – | – |
| CC1(C)CCC(CN2CCN(c3ccc(C(=O)NS(=O)(=O)c4ccc(NCC5CCOCC5)c([N+](=O)[O-])c4)c(Oc4cc5cc[nH]c5cn4)c3)CC2)=C(c2ccc(Cl)cc2)C1 [compound H] | – | – | unstable | – |
| CC1(C)CCC(CN2CCN(c3ccc(C(=O)NS(=O)(=O)c4ccc(OCC5COCCN5C5CCOCC5)c([N+](=O)[O-])c4)c(Oc4cnc5[nH]ccc5c4)c3)CC2)=C(c2ccc(Cl)cc2)C1 (stereo not drawn) [Example 104, 4-(4-{[2-(4-chlorophenyl)-4,4-dimethylcyclohex-1-en-1-yl]methyl}piperazin-1-yl)-N({3-nitro-4-[(4-tetrahydro-2H-pyran-4-ylmorpholin-3-yl)methoxy]phenyl}sulfonyl)-2-(1H-pyrrolo[2,3-b]pyridin-5-yloxy)benzamide] | 0.016 | 71.2 | – | – |
| CC1(C)CCC(CN2CCN(c3ccc(C(=O)NS(=O)(=O)c4ccc(NC[C@H]5CC[C@@](C)(O)CC5)c([N+](=O)[O-])c4)c(Oc4cnc5[nH]ccc5c4)c3)CC2)=C(c2ccc(Cl)cc2)C1 [Example 337, 4-(4-{[2-(4-chlorophenyl)-4,4-dimethylcyclohex-1-en-1-yl]methyl}piperazin-1-yl)-N-[(4-{[(trans-4-hydroxy-4-methylcyclohexyl)methyl]amino}-3-nitrophenyl)sulfonyl]-2-(1H-pyrrolo[2,3-b]pyridin-5-yloxy)benzamide] | – | 1.76 | – | – |
| 4-(4-{[2-(4-chlorophenyl)-4,4-dimethylcyclohex-1-en-1-yl]methyl}piperazin-1-yl)-N-[(4-{[(3R)-1-(2-fluoroethyl)pyrrolidin-3-yl]amino}-3-nitrophenyl)sulfonyl]-2-(1H-pyrrolo[2,b]pyridin-5-yloxy)benzamide [Example 183] | < 0.01 | 17.5 | – | – |
| CC1(C)CCC(CN2CCN(c3ccc(C(=O)NS(=O)(=O)c4cnc(OC[C@]5(F)CC[C@@H](O)CC5)c(Cl)c4)c(Oc4cnc5[nH]ccc5c4)c3)CC2)=C(c2ccc(Cl)cc2)C1 [Example 350, N-({5-chloro-6-[(cis-1-fluoro-4-hydroxycyclohexyl)methoxy]pyridin-3-yl}sulfonyl)-4-(4-{[2-(4-chlorophenyl)-4,4-dimethylcyclohex-1-en-1-yl]methyl}piperazin-1-yl)-2-(1H-pyrrolo[2,3-b]pyridin-5-yloxy)benzamide] | < 0.01 | – | – | – |
| COC1(C)CCC(c2ccc(Cl)cc2)=C(CN2CCN(c3ccc(C(=O)NS(=O)(=O)c4ccc(NC[C@H]5CC[C@@](C)(O)CC5)c([N+](=O)[O-])c4)c(Oc4cnc5[nH]ccc5c4)c3)CC2)C1 (stereo partly drawn) [Example 377, 4-(4-{[2-(4-chlorophenyl)-5-methoxy-5-methylcyclohex-1-en-1-yl]methyl}piperazin-1-yl)-N-[(4-{[(trans-4-hydroxy-4-methylcyclohexyl)methyl]amino}-3-nitrophenyl)sulfonyl]-2-(1H-pyrrolo[2,3-b]pyridin-5-yloxy)benzamide] | < 0.001 | – | – | – |
| CC1(C)CCC(CN2CCN(c3ccc(C(=O)NS(=O)(=O)c4ccc(OC[C@H]5CC[C@@](C)(O)CC5)c(Cl)c4)c(Oc4cnc5[nH]ccc5c4)c3)CC2)=C(c2ccc(Cl)cc2)C1 [Example 362, N-({3-chloro-4-[(trans-4-hydroxy-4-methylcyclohexyl)methoxy]phenyl}sulfonyl)-4-(4-{[2-(4-chlorophenyl)-4,4-dimethylcyclohex-1-en-1-yl]methyl}piperazin-1-yl)-2-(1H-pyrrolo[2,3-b]pyridin-5-yloxy)benzamide] | 0.016 | 31.7 | – | – |
| 4-(4-{[2-(4-chlorophenyl)-4,4-dimethylcyclohex-1-en-1-yl]methyl}piperazin-1-yl)-N-({3-(pentafluoro-lambda-6-sulfanyl)-4-[(tetrahydro-2H-pyran-4-ylmethyl)amino]phenyl}sulfonyl)-2-(1H-pyrrolo[2,3-b]pyridin-5-yloxy)benzamide [Example 233] | 1.65 | > 1000 | – | – |
| 4-(4-{[2-(4-chlorophenyl)-4,4-dimethylcyclohex-1-en-1-yl]methyl}piperazin-1-yl)-N-{[4-({[(E)-4-hydroxy-1-adamantyl]methyl}amino)-3-nitrophenyl]sulfonyl}-2-(1H-pyrrolo[2,3-b]pyridin-5-yloxy)benzamide [Example 199] | < 0.01 | 5.06 | – | – |
| CC1(C)CCC(CN2CCN(c3ccc(C(=O)NS(=O)(=O)c4cnc(NC[C@H]5CC[C@@](C)(O)CC5)c([N+](=O)[O-])c4)c(Oc4cnc5[nH]ccc5c4)c3)CC2)=C(c2ccc(Cl)cc2)C1 [Example 371, 4-(4-{[2-(4-chlorophenyl)-4,4-dimethylcyclohex-1-en-1-yl]methyl}piperazin-1-yl)-N-[(6-{[(trans-4-hydroxy-4-methylcyclohexyl)methyl]amino}-5-nitropyridin-3-yl)sulfonyl]-2-(1H-pyrrolo[2,3-b]pyridin-5-yloxy)benzamide] | < 0.001 | – | – | – |
| CN(C)CC[C@H](CSc1ccccc1)Nc1ccc(S(=O)(=O)NC(=O)c2ccc(N3CCN(Cc4ccccc4-c4ccc(Cl)cc4)CC3)cc2)cc1[N+](=O)[O-] [ABT-737, N-(4-(4-((4′-chloro(1,1′-biphenyl)-2-yl)methyl)piperazin-1-yl)benzoyl)-4-(((1R)-3-(dimethylamino)-1-((phenylsulfanyl)methyl)propyl)amino)-3-nitrobenzenesulfonamide] | – | – | – | sensitive |
| 4-(4-{[2-(4-chlorophenyl)-4,4-dimethylcyclohex-1-en-1-yl]methyl}piperazin-1-yl)-N-{[4-({[cis-3-morpholin-4-ylcyclopentyl]methyl}amino)-3-nitrophenyl]sulfonyl}-2-(1H-pyrrolo[2,3-b]pyridin-5-yloxy)benzamide [Example 188] | – | 16.4 | – | – |
| CCC1(O)CCC(CNc2ccc(S(=O)(=O)NC(=O)c3ccc(N4CCN(CC5=C(c6ccc(Cl)cc6)CC(C)(C)CC5)CC4)cc3Oc3cnc4[nH]ccc4c3)cc2[N+](=O)[O-])CC1 (stereo not drawn) [Example 358, 4-(4-{[2-(4-chlorophenyl)-4,4-dimethylcyclohex-1-en-1-yl]methyl}piperazin-1-yl)-N-[(4-{[(trans-4-ethyl-4-hydroxycyclohexyl)methyl]amino}-3-nitrophenyl)sulfonyl]-2-(1H-pyrrolo[2,3-b]pyridin-5-yloxy)benzamide] | < 0.01 | – | – | – |
| CC1(C)CCC(CN2CCN(c3ccc(C(=O)NS(=O)(=O)c4cnc(NC[C@H]5CC[C@](C)(O)CC5)c([N+](=O)[O-])c4)c(Oc4cnc5[nH]ccc5c4)c3)CC2)=C(c2ccc(Cl)cc2)C1 [Example 376, 4-(4-{[2-(4-chlorophenyl)-4,4-dimethylcyclohex-1-en-1-yl]methyl}piperazin-1-yl)-N-[(6-{[(cis-4-hydroxy-4-methylcyclohexyl)methyl]amino}-5-nitropyridin-3-yl)sulfonyl]-2-(1H-pyrrolo[2,3-b]pyridin-5-yloxy)benzamide] | < 0.001 | – | – | – |
| CC[C@]1(O)CC[C@H](CNc2ccc(S(=O)(=O)NC(=O)c3ccc(N4CCN(CC5=C(c6ccc(Cl)cc6)CC(C)(C)CC5)CC4)cc3Oc3cnc4[nH]ccc4c3)cc2[N+](=O)[O-])CC1 [Example 359, 4-(4-{[2-(4-chlorophenyl)-4,4-dimethylcyclohex-1-en-1-yl]methyl}piperazin-1-yl)-N-[(4-{[(cis-4-ethyl-4-hydroxycyclohexyl)methyl]amino}-3-nitrophenyl)sulfonyl]-2-(1H-pyrrolo[2,3-b]pyridin-5-yloxy)benzamide] | < 0.01 | – | – | – |
